Data taken from patent US20110172422A1, “Methods of Making Pharmacokinetically Improved Compounds Comprising Functional Residues or Groups and Pharmaceutical Compositions Comprising Said Compounds” (SURFACE LOGIX, INC., priority 2005, published 2011).
pIC50: −log10 of the molar value. Values after ≈ are worked out from the molar mass of the structure shown. Where two headings read alike, the source gives them in different places.

Legend:
Caco-2 permeability = type: in vitro ADME; conditions: human; for Papp A→B: AtoB; for Papp B→A: BtoA
Excerpt: Several model systems are available, employing monolayers of various cell types, for evaluation of active transport of pharmaceutically active substances. For example, monolayers of Caco-2 intestinal epithelial cells can be used to evaluate active transport of substances between the intestine and the bloodstream. When plated on a surface which allows the flow of material from apical to basolateral and vice versa, such cells form a biological membrane which can be used to simulate physiological absorption and bio-availability. In another example, mouse brain capillary endothelial cell (MBEC) lines have been established to evaluate active transport in and out of the central nervous system. Another example of such cells is HT29 human colon carcinoma cells. Further, monolayers expressing particular transporter proteins can be established using transfected cells. For example, Sasaki et al (2002) J. Biol. Chem. 8:6497 used a double-transfected Madin-Darby canine kidney cell monolayer to study transport of organic anions.

PDE-1 = assay: Phosphodiesterase inhibition PDE-1; type: biochemical
Procedure: (§1) Phosphodiesterase inhibition was determined by methods known to one of skill in the art.

Non-specific binding = type: in vitro ADME
Solubility = type: physicochemical
PAMPA permeability = type: in vitro ADME; conditions: for Papp: PAMPA
Cytotoxicity GC50 = type: cell-based
PDE-3 = assay: Phosphodiesterase inhibition PDE-3; type: biochemical
Procedure: as §1

PDE-6 = assay: Phosphodiesterase inhibition PDE-6; type: biochemical
Procedure: as §1

Protein binding = type: in vitro ADME; conditions: human, human serum components
Procedure: In general, protein binding is assessed by measuring the capacity of molecules of the invention to bind to one or more human serum components or mimics thereof. In one embodiment, suitable functional residues may be identified by screening of surfaces comprising such residues for their ability to resist adsorption of serum components, including, but not limited to serum proteins, and preferably human serum proteins. Candidate residues can be screened directly by attaching them to a solid support and testing the support for protein resistance. Alternatively, candidate residues are incorporated into, or linked to molecules of pharmaceutical interest. Such compounds may be synthesized on a solid support, or bound to a solid support after synthesis. In a non-limiting example of a direct binding assay, immobilized candidate functional residues or molecules incorporating such residues are tested for their ability to bind serum components. The serum components can be labeled with a signaling moiety for detection, or a labeled secondary reagent that binds to such serum components can be used.

PDE5 [1] = target: T1, PDE5 (Homo sapiens, UniProt O76074); assay: Phosphodiesterase inhibition IC50 (Table 1); type: biochemical; conditions: PDE5 inhibitor scaffold Compound B
Procedure: as §1

PDE5 [2] = target: T1, PDE5; assay: Phosphodiesterase inhibition PDE-5 human; type: biochemical
Procedure: as §1

Cytotoxicity LC50 = type: cell-based; conditions: Chronic; read-out: Cytotox LC50 Chronic
[3] = pH 2.7, aqueous buffer, pH 2.7, read-out: Solubility pH 2.7
[4] = pH 7.4, aqueous buffer, pH 7.4, read-out: Solubility pH 7.4

Row | SMILES | Papp A→B (Caco-2 permeability) | Papp B→A (Caco-2 permeability) | pIC50 (PDE-1) | Non-Spec Binding (Non-specific binding) | solubility (Solubility; [3]) | solubility (Solubility; [4]) | Papp (PAMPA permeability; Hex, read-out: PAMPA Hex) | Papp (PAMPA permeability; Lec, read-out: PAMPA Lec) | pIC50 (PDE-3) | pIC50 (PDE-6) | fraction unbound (Protein binding) | Cytotox GC50 (Cytotoxicity GC50) | pIC50 (PDE5 [1]) | pIC50 (PDE5 [2]) | CC50 (Cytotoxicity LC50) | Solubility pH 2.7 (Solubility; pH 2.7) | Solubility pH 7.4 (Solubility; pH 7.4) | PAMPA Hex (PAMPA permeability; Hex)
1 | CCCc1nc(C)c2c(=O)[nH]c(-c3cc(S(=O)(=O)N4CCCC4C(=O)N(C)C)ccc3OCC)nn12 (stereo not shown) [Compound 5] | 19.4 ×10⁻⁶ cm/s | 60.2 ×10⁻⁶ cm/s |  |  | 100 µg/mL (≈ 194 µM) | 93 µg/mL (≈ 180 µM) | 13.2 ×10⁻⁶ cm/s |  |  |  |  |  |  |  |  |  |  | 
2 | CCCc1nc(C)c2c(=O)[nH]c(-c3cc(S(=O)(=O)N(C)[C@@H](C)C(=O)NC)ccc3OCC)nn12 [Compound 13] |  |  |  |  | 69.4 µg/mL (≈ 141 µM) | 74.6 µg/mL (≈ 152 µM) | 0.42 ×10⁻⁶ cm/s |  |  |  |  | 94.0 µM |  |  | 100 µM |  |  | 
3 | CCCc1nc(C)c2c(=O)[nH]c(-c3cc(S(=O)(=O)N(C)[C@H](C)C(=O)NC)ccc3OCC)nn12 [Compound 14] |  |  |  |  | 62.6 µg/mL (≈ 128 µM) | 64 µg/mL (≈ 130 µM) | 0.47 ×10⁻⁶ cm/s |  |  |  |  | 88.0 µM |  |  | 100 µM |  |  | 
4 | CCCc1nc(C)c2c(=O)[nH]c(-c3cc(S(=O)(=O)N(C)C(C)(C)C(=O)NC)ccc3OCC)nn12 [Compound 15] | 6.8 ×10⁻⁶ cm/s | 34.9 ×10⁻⁶ cm/s |  |  |  |  | 0.25 ×10⁻⁶ cm/s |  |  |  |  | 95.0 µM |  |  | 100 µM |  |  | 
5 | CCCc1nc(C)c2c(=O)[nH]c(-c3cc(S(=O)(=O)N(C)C4(C(=O)N(C)C)CC4)ccc3OCC)nn12 [Compound 16] |  |  |  |  | 74.7 µg/mL (≈ 145 µM) | 82.5 µg/mL (≈ 160 µM) | 3.41 ×10⁻⁶ cm/s |  |  |  |  | 100 µM |  |  | 100 µM |  |  | 
6 | CCCc1nc(C)c2c(=O)[nH]c(-c3cc(S(=O)(=O)NC(C)C(=O)N(C)C)ccc3OCC)nn12 (stereo not shown) [Compound 17] |  |  |  |  | 70 µg/mL (≈ 143 µM) | 78.4 µg/mL (≈ 160 µM) | 0.26 ×10⁻⁶ cm/s |  |  |  |  | 100 µM | 9.18 | 9.18 | 100 µM |  |  | 
7 | CCCc1nc(C)c2c(=O)[nH]c(-c3cc(S(=O)(=O)NC(C)C(=O)N(C)C)ccc3OCC)nn12 (stereo not shown) [Compound 18] |  |  |  |  |  |  |  |  |  |  |  | 100 µM | 9.44 | 9.44 | 100 µM | 70.3 ug/mL | 75.75 ug/mL | 0.18 10^−6 cm/s
8 | CCCc1nc(C)c2c(=O)[nH]c(-c3cc(S(=O)(=O)NC(C)(C)C(=O)N(C)C)ccc3OCC)nn12 [Compound 19] | 2.43 ×10⁻⁶ cm/s | 33 ×10⁻⁶ cm/s |  |  | > 100 µg/mL | 7.1 µg/mL (≈ 14.1 µM) | 0.17 ×10⁻⁶ cm/s |  |  |  |  | 100 µM |  |  | 100 µM |  |  | 

The next lines start with results.

Row | Papp A→B (Caco-2 permeability) | Papp B→A (Caco-2 permeability) | pIC50 (PDE-1) | Non-Spec Binding (Non-specific binding) | solubility (Solubility; [3]) | solubility (Solubility; [4]) | Papp (PAMPA permeability; Hex, read-out: PAMPA Hex) | Papp (PAMPA permeability; Lec, read-out: PAMPA Lec) | pIC50 (PDE-3) | pIC50 (PDE-6) | fraction unbound (Protein binding) | SMILES | Cytotox GC50 (Cytotoxicity GC50) | pIC50 (PDE5 [1]) | pIC50 (PDE5 [2]) | CC50 (Cytotoxicity LC50) | Solubility pH 2.7 (Solubility; pH 2.7) | Solubility pH 7.4 (Solubility; pH 7.4) | PAMPA Hex (PAMPA permeability; Hex)
9 | 17.5 ×10⁻⁶ cm/s | 48.9 ×10⁻⁶ cm/s | 7.60 | 11.07% | > 100 µg/mL | 96.1 µg/mL (≈ 196 µM) | 5.49 ×10⁻⁶ cm/s | 0.128 ×10⁻⁶ cm/s | 6.01 | 8.46 | 0.086 | CCCc1nc(C)c2c(=O)[nH]c(-c3cc(S(=O)(=O)N(C)CC(=O)N(C)C)ccc3OCC)nn12 [Compound 1] | 76.7 µM |  |  |  |  |  | 
10 | 33.3 ×10⁻⁶ cm/s | 61.3 ×10⁻⁶ cm/s |  | 20.7% | > 100 µg/mL | > 100 µg/mL | 18.2 ×10⁻⁶ cm/s |  |  |  | 0.032 | CCCc1nc(C)c2c(=O)[nH]c(-c3cc(S(=O)(=O)N(C)[C@H](C)C(=O)N(C)C)ccc3OCC)nn12 [Compound 2] | 94.6 µM |  |  |  |  |  | 
11 | 2.97 ×10⁻⁶ cm/s | 25.9 ×10⁻⁶ cm/s |  | 7% | 112 µg/mL (≈ 199 µM) | 109 µg/mL (≈ 194 µM) | 0.47 ×10⁻⁶ cm/s | 0.056 ×10⁻⁶ cm/s |  |  | 0.18 | CCCc1nc(C)c2c(=O)[nH]c(-c3cc(S(=O)(=O)N(C)CC(=O)N(C)CC(=O)N(C)C)ccc3OCC)nn12 [Compound 4] |  |  |  |  |  |  | 
12 | 11.2 ×10⁻⁶ cm/s | 55.1 ×10⁻⁶ cm/s |  | 7.3% | > 100 µg/mL | > 100 µg/mL | 0.78 ×10⁻⁶ cm/s |  |  |  | 0.084 | CCCc1nc(C)c2c(=O)[nH]c(-c3cc(S(=O)(=O)N(C)CC(=O)N4CCOCC4)ccc3OCC)nn12 [Compound 6] |  |  |  |  |  |  | 
13 | 4.35 ×10⁻⁶ cm/s | 35.6 ×10⁻⁶ cm/s |  | 2.6% | > 100 µg/mL | > 100 µg/mL | 0.18 ×10⁻⁶ cm/s |  |  |  | 0.155 | CCCc1nc(C)c2c(=O)[nH]c(-c3cc(S(=O)(=O)N(C)CC(=O)N4CCN(C)CC4)ccc3OCC)nn12 [Compound 7] |  |  |  |  |  |  | 
14 | 42 ×10⁻⁶ cm/s | 77.4 ×10⁻⁶ cm/s |  | 19% | > 100 µg/mL | > 100 µg/mL | 21.8 ×10⁻⁶ cm/s |  |  |  | 0.024 | CCCc1nc(C)c2c(=O)[nH]c(-c3cc(S(=O)(=O)N(C)CC(=O)N(CC)CC)ccc3OCC)nn12 [Compound 8] |  |  |  |  |  |  | 
15 | 2.33 ×10⁻⁶ cm/s | 11.3 ×10⁻⁶ cm/s |  | 9.8% | > 100 µg/mL | > 100 µg/mL | 0.03 ×10⁻⁶ cm/s |  |  |  | 0.246 | CCCc1nc(C)c2c(=O)[nH]c(-c3cc(S(=O)(=O)N(C)CC(=O)N(C)CCN(C)C)ccc3OCC)nn12 [Compound 9] |  |  |  |  |  |  | 
16 |  |  |  |  | 77.9 µg/mL (≈ 146 µM) | 78.5 µg/mL (≈ 147 µM) | 67 ×10⁻⁶ cm/s |  |  |  |  | CCCc1nc(C)c2c(=O)[nH]c(-c3cc(S(=O)(=O)N(CC)CC(=O)N(CC)CC)ccc3OCC)nn12 [Compound 10] |  |  |  |  |  |  | 
17 | 11.4 ×10⁻⁶ cm/s | 63.3 ×10⁻⁶ cm/s |  | 0% | 66.7 µg/mL (≈ 125 µM) | 70.9 µg/mL (≈ 133 µM) | 1.45 ×10⁻⁶ cm/s |  |  |  | 0.042 | CCCc1nc(C)c2c(=O)[nH]c(-c3cc(S(=O)(=O)N(C)CC(=O)N(C)CCOC)ccc3OCC)nn12 [Compound 11] |  | 9.82 | 9.82 |  |  |  | 
18 | 33.4 ×10⁻⁶ cm/s | 50.4 ×10⁻⁶ cm/s |  | 30.7% | 96 µg/mL (≈ 190 µM) | 100 µg/mL (≈ 198 µM) | 13.9 ×10⁻⁶ cm/s |  |  |  | 0.058 | CCCc1nc(C)c2c(=O)[nH]c(-c3cc(S(=O)(=O)N(C)[C@@H](C)C(=O)N(C)C)ccc3OCC)nn12 [Compound 12] | 99.3 µM |  |  |  |  |  | 
19 | 5.15 ×10⁻⁶ cm/s | 31.4 ×10⁻⁶ cm/s |  |  | > 100 µg/mL | > 100 µg/mL | 0.24 ×10⁻⁶ cm/s |  |  |  |  | CCCc1nc(C)c2c(=O)[nH]c(-c3cc(S(=O)(=O)N(C)CC(=O)NC)ccc3OCC)nn12 [Compound 21] |  |  |  |  |  |  | 
